Experimental data from patent publication US9765069B2, “Antimicrobial compounds” (OXFORD UNIVERSITY INNOVATION LIMITED, priority 2012, dated 2017).
Values after ≈ are worked out from the molar mass of the structure shown.

How the values were obtained:
S1 = test: MIC determination (bacteria), strain S1; format: cell-based, S. aureus; details: 2-fold broth dilution; for MIC: Staphylococcus aureus
Protocol: (§1) MIC determination (bacteria); MICs were determined based on Clinical and Laboratory Standards Institute (CLSI) methodology (Methods for dilution antimicrobial susceptibility tests for bacteria that grow aerobically; Approved Standard—seventh edition. 2006, M7-A7, CLSI, Wayne Pa.) by a 2-fold broth dilution technique in Mueller Hinton (pH7.4 Biorad). For S. pneumoniae, the medium was supplemented with 2.5% laked horse blood. For H. influenzae, the medium was haemophilus test medium (H.T.M.). Overnight cultures were diluted to obtain the final inoculum of 10^5 cfu/well. Incubation was 37° C. overnight in ambient air. The MIC was defined as the lowest concentration which inhibited all visual growth and expressed in μg/ml. For each bacterial species, all of the molecules were tested in the same experiment in order to give a head-to-head comparison.

S26 = test: MIC determination (bacteria), strain S26; format: cell-based, S. aureus; details: 2-fold broth dilution; for MIC: Staphylococcus aureus
Protocol: as §1

S4 = test: MIC determination (bacteria), strain S4; format: cell-based, S. aureus; details: 2-fold broth dilution; for MIC: Staphylococcus aureus
Protocol: as §1

[1] = test system: S2 (S. aureus 2, MRSA in vivo); test: MIC determination (bacteria), strain S2; format: cell-based; details: 2-fold broth dilution; for MIC: Staphylococcus aureus, MRSA
Protocol: as §1

E1 = test: MIC determination (bacteria), strain E1; format: cell-based, enterococcus; details: 2-fold broth dilution; for MIC: Enterococcus
Protocol: as §1

E2 = test: MIC determination (bacteria), strain E2; format: cell-based, enterococcus; details: 2-fold broth dilution; for MIC: Enterococcus
Protocol: as §1

P1 = test: MIC determination (bacteria), strain P1; format: cell-based, S. pneumoniae; details: 2-fold broth dilution; for MIC: Streptococcus pneumoniae
Protocol: as §1

P9 = test: MIC determination (bacteria), strain P9; format: cell-based, S. pneumoniae; details: 2-fold broth dilution; for MIC: Streptococcus pneumoniae
Protocol: as §1

P9B = test: MIC determination (bacteria), strain P9B; format: cell-based, S. pneumoniae; details: 2-fold broth dilution; for MIC: Streptococcus pneumoniae
Protocol: as §1

H3 = test: MIC determination (bacteria), strain H3; format: cell-based, H. influenzae; details: haemophilus test medium; for MIC: Haemophilus influenzae
Protocol: as §1

H4 = test: MIC determination (bacteria), strain H4; format: cell-based, H. influenzae; details: haemophilus test medium; for MIC: Haemophilus influenzae
Protocol: as §1

Structure (SMILES)	MIC S1 (S1; Table 2) [µg/mL]	MIC S26 (S26; Table 2) [µg/mL]	MIC S4 (S4; Table 2) [µg/mL]	MIC S2 ([1]; Table 2) [µg/mL]	MIC E1 (E1; Table 2) [µg/mL]	MIC E2 (E2; Table 2) [µg/mL]	MIC P1 (P1; Table 2) [µg/mL]	MIC P9 (P9; Table 2) [µg/mL]	MIC P9B (P9B; Table 2) [µg/mL]	MIC H3 (H3; Table 2) [µg/mL]	MIC H4 (H4; Table 2 and its footnote f) [µg/mL]	further results
O=C1CCN(C(=O)c2ccccc2)C(=O)C1=C(O)CCCCC1CCCCC1 [19c]	1 (≈ 2.61 µM)	2 (≈ 5.22 µM)	2 (≈ 5.22 µM)	2 (≈ 5.22 µM)	2 (≈ 5.22 µM)	2 (≈ 5.22 µM)	1 (≈ 2.61 µM)	1 (≈ 2.61 µM)	4 (≈ 10.4 µM)	16 (≈ 41.7 µM)	8 (≈ 20.9 µM)	–
O=C1CCN(C(=O)c2ccccc2)C(=O)/C1=C(\O)CCc1ccc(-c2ccccc2C(F)(F)F)o1 [19e]	4 (≈ 8.27 µM)	4 (≈ 8.27 µM)	4 (≈ 8.27 µM)	4 (≈ 8.27 µM)	2 (≈ 4.14 µM)	2 (≈ 4.14 µM)	2 (≈ 4.14 µM)	2 (≈ 4.14 µM)	8 (≈ 16.5 µM)	>64	16 (≈ 33.1 µM)	–
CCCCCCCCCCC(O)=C1C(=O)C(CCSC)N(C(C)=O)C1=O (stereo not shown) [24a]	–	–	–	–	–	–	–	–	–	–	–	MIC S1 (S1; Table 1): 0.5 µg/mL (≈ 1.3 µM); MIC S26 (S26; Table 1): 8 µg/mL (≈ 20.9 µM); MIC S4 (S4; Table 1): 4 µg/mL (≈ 10.4 µM); MIC S2 ([1]; Table 1): 2 µg/mL (≈ 5.21 µM); MIC E1 (E1; Table 1): 0.5 µg/mL (≈ 1.3 µM); MIC E2 (E2; Table 1): 0.5 µg/mL (≈ 1.3 µM); MIC P1 (P1; Table 1): 0.5 µg/mL (≈ 1.3 µM); MIC P9 (P9; Table 1): 0.25 µg/mL (≈ 0.652 µM); MIC P9B (P9B; Table 1): 2 µg/mL (≈ 5.21 µM); MIC H3 (H3; Table 1): 8 µg/mL (≈ 20.9 µM); MIC H4 (H4; Table 1): 4 µg/mL (≈ 10.4 µM)
CCCCCC(O)=C1C(=O)C(CCSC)N(C(=O)C2CCCCC2)C1=O (stereo not shown) [24d]	–	–	–	–	–	–	–	–	–	–	–	MIC S1 (S1; Table 1): 2 µg/mL (≈ 5.24 µM); MIC S26 (S26; Table 1): 4 µg/mL (≈ 10.5 µM); MIC S4 (S4; Table 1): 2 µg/mL (≈ 5.24 µM); MIC S2 ([1]; Table 1): 4 µg/mL (≈ 10.5 µM); MIC E1 (E1; Table 1): 2 µg/mL (≈ 5.24 µM); MIC E2 (E2; Table 1): 2 µg/mL (≈ 5.24 µM); MIC P1 (P1; Table 1): 2 µg/mL (≈ 5.24 µM); MIC P9 (P9; Table 1): 2 µg/mL (≈ 5.24 µM); MIC P9B (P9B; Table 1): 4 µg/mL (≈ 10.5 µM); MIC H3 (H3; Table 1): 32 µg/mL (≈ 83.9 µM); MIC H4 (H4; Table 1): 4 µg/mL (≈ 10.5 µM)
CCCCCCCCCCCCCC(O)=C1C(=O)CCN(C(=O)c2ccccc2)C1=O [25c]	–	–	–	–	–	–	–	–	–	–	–	MIC S1 (S1; Table 1): 2 µg/mL (≈ 4.68 µM); MIC S26 (S26; Table 1): 4 µg/mL (≈ 9.35 µM); MIC S4 (S4; Table 1): 1 µg/mL (≈ 2.34 µM); MIC S2 ([1]; Table 1): 2 µg/mL (≈ 4.68 µM); MIC E1 (E1; Table 1): 2 µg/mL (≈ 4.68 µM); MIC E2 (E2; Table 1): 1 µg/mL (≈ 2.34 µM); MIC P1 (P1; Table 1): 1 µg/mL (≈ 2.34 µM); MIC P9 (P9; Table 1): 1 µg/mL (≈ 2.34 µM); MIC P9B (P9B; Table 1): 8 µg/mL (≈ 18.7 µM); MIC H3 (H3; Table 1): >64 µg/mL; MIC H4 (H4; Table 1): 32 µg/mL (≈ 74.8 µM)
CCCCCCC(=O)N1CC(=O)C(=C(O)CC2CCCCC2)C1=O [27b]	2 (≈ 5.96 µM)	4 (≈ 11.9 µM)	4 (≈ 11.9 µM)	4 (≈ 11.9 µM)	2 (≈ 5.96 µM)	2 (≈ 5.96 µM)	1 (≈ 2.98 µM)	0.5 (≈ 1.49 µM)	2 (≈ 5.96 µM)	4 (≈ 11.9 µM)	0.5 (≈ 1.49 µM)	–
CCCC(=O)N1CC(=O)C(=C(O)CC23CC4CC(CC(C4)C2)C3)C1=O [27j]	16 (≈ 46.3 µM)	16 (≈ 46.3 µM)	16 (≈ 46.3 µM)	16 (≈ 46.3 µM)	8 (≈ 23.2 µM)	8 (≈ 23.2 µM)	4 (≈ 11.6 µM)	4 (≈ 11.6 µM)	4 (≈ 11.6 µM)	16 (≈ 46.3 µM)	4 (≈ 11.6 µM)	–
CCCCCCC(=O)N1CC(=O)/C(=C(/O)CO[C@H]2C[C@@H](C)CC[C@@H]2C(C)C)C1=O [27n]	–	–	–	–	–	–	–	–	–	–	–	MIC (S1; Table 2): > 64 µg/mL; MIC (S26; Table 2): > 64 µg/mL; MIC (S4; Table 2): > 64 µg/mL; MIC ([1]; Table 2): > 64 µg/mL; MIC (E1; Table 2): 8 µg/mL (≈ 19.6 µM); MIC (E2; Table 2): 2 µg/mL (≈ 4.91 µM); MIC (P1; Table 2): 0.5 µg/mL (≈ 1.23 µM); MIC (P9; Table 2): 0.5 µg/mL (≈ 1.23 µM); MIC (P9B; Table 2): 8 µg/mL (≈ 19.6 µM); MIC (H3; Table 2): > 64 µg/mL; MIC (H4; Table 2 and its footnote f): 2 µg/mL (≈ 4.91 µM)
CCCC(=O)N1CC(=O)C(=C(O)CCCCC2CCCCC2)C1=O [27o]	4 (≈ 11.9 µM)	8 (≈ 23.8 µM)	16 (≈ 47.7 µM)	4 (≈ 11.9 µM)	4 (≈ 11.9 µM)	2 (≈ 5.96 µM)	0.5 (≈ 1.49 µM)	0.5 (≈ 1.49 µM)	4 (≈ 11.9 µM)	8 (≈ 23.8 µM)	2 (≈ 5.96 µM)	–
Cc1ccccc1C(=O)N1CC(=O)C(=C(O)CCCCC2CCCCC2)C1=O [27s]	16 (≈ 41.7 µM)	16 (≈ 41.7 µM)	16 (≈ 41.7 µM)	16 (≈ 41.7 µM)	8 (≈ 20.9 µM)	8 (≈ 20.9 µM)	2 (≈ 5.22 µM)	2 (≈ 5.22 µM)	16 (≈ 41.7 µM)	32 (≈ 83.4 µM)	4 (≈ 10.4 µM)	–
CCCCCCC(=O)N1CC(=O)C(=C(O)CCCCc2ccccc2)C1=O [28b]	2 (≈ 5.38 µM)	4 (≈ 10.8 µM)	2 (≈ 5.38 µM)	2 (≈ 5.38 µM)	2 (≈ 5.38 µM)	1 (≈ 2.69 µM)	0.5 (≈ 1.35 µM)	0.25 (≈ 0.673 µM)	2 (≈ 5.38 µM)	8 (≈ 21.5 µM)	2 (≈ 5.38 µM)	–
CCCCCCC(=O)N1CC(=O)C(=C(O)CCc2ccc(SC)cc2)C1=O [28d]	4 (≈ 10.3 µM)	32 (≈ 82.2 µM)	16 (≈ 41.1 µM)	8 (≈ 20.5 µM)	1 (≈ 2.57 µM)	2 (≈ 5.13 µM)	0.5 (≈ 1.28 µM)	0.5 (≈ 1.28 µM)	4 (≈ 10.3 µM)	4 (≈ 10.3 µM)	1 (≈ 2.57 µM)	–
CSCCC1C(=O)C(=C(O)CC23CC4CC(CC(C4)C2)C3)C(=O)N1C(C)=O (stereo not shown) [31d]	16 (≈ 40.9 µM)	32 (≈ 81.7 µM)	16 (≈ 40.9 µM)	32 (≈ 81.7 µM)	16 (≈ 40.9 µM)	16 (≈ 40.9 µM)	8 (≈ 20.4 µM)	8 (≈ 20.4 µM)	8 (≈ 20.4 µM)	32 (≈ 81.7 µM)	4 (≈ 10.2 µM)	–
CSCCC1C(=O)/C(=C(/O)CC(C)(C)CC(=O)OCCC23CC4CC(CC(C4)C2)C3)C(=O)N1C(C)=O (stereo not shown) [31i]	–	–	–	–	–	–	–	–	–	–	–	MIC (S1; Table 2): 8 µg/mL (≈ 15.4 µM); MIC (S26; Table 2): > 64 µg/mL; MIC (S4; Table 2): 16 µg/mL (≈ 30.8 µM); MIC ([1]; Table 2): 8 µg/mL (≈ 15.4 µM); MIC (E1; Table 2): 2 µg/mL (≈ 3.85 µM); MIC (E2; Table 2): 1 µg/mL (≈ 1.92 µM); MIC (P1; Table 2): 2 µg/mL (≈ 3.85 µM); MIC (P9; Table 2): 1 µg/mL (≈ 1.92 µM); MIC (P9B; Table 2): 4 µg/mL (≈ 7.7 µM); MIC (H3; Table 2): > 64 µg/mL; MIC (H4; Table 2 and its footnote f): 8 µg/mL (≈ 15.4 µM)
